Results on six compounds are retold here after patent publication US20260325658A1 (priority 2022, published 2026).

Structures are written as SMILES. “Also recorded” adds a separate entry of the source.

The conditions of series [1]: cited from earlier work.
In series [2] the target is human delta (DOP) receptor (Homo sapiens, UniProt P41143). It is filed as cell-based.
Another series concerns dopamine receptors. The conditions noted are these: cited from earlier work.
The target of the next series is Opiate μ (Homo sapiens, UniProt P35372). It is filed as binding.
Chain of Opiate μ (P35372 whole entry): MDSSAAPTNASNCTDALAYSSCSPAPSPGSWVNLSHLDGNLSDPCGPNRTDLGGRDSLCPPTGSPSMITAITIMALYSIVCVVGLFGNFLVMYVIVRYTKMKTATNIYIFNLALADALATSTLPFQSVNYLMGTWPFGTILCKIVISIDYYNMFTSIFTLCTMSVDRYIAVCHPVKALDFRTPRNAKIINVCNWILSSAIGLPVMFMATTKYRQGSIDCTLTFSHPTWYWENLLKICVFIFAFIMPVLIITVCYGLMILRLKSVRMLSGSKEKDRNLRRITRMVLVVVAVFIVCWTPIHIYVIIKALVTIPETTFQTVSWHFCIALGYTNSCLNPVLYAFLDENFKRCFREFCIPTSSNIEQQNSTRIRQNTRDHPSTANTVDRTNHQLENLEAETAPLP
The target in a further series is D2L human dopamine GPCR (Homo sapiens, UniProt P14416). The series is classed as cell-based.
Chain of D2L human dopamine GPCR (P14416 whole entry): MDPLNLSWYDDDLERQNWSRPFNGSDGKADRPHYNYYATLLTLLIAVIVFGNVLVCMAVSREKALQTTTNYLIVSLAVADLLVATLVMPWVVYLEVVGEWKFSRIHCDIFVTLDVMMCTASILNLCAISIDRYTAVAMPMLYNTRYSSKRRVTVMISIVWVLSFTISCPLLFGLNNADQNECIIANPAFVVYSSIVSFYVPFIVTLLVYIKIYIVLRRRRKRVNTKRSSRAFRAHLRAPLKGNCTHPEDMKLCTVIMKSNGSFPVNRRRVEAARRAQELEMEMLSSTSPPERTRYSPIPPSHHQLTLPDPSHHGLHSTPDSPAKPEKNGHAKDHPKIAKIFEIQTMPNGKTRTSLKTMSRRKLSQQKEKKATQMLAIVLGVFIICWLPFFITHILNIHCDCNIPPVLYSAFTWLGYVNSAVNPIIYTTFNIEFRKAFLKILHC
The subject of series [3] is opioid addiction syndrome. The conditions noted are these: in vivo; cited from earlier work.
For series [4] the following is noted: in vivo; cited from earlier work.
The subject of the next series is patients. The conditions noted are these: human, in vivo; cited from earlier work.
A further series concerns the target Sigma 2 (Homo sapiens, UniProt Q5BJF2). The conditions noted are these: cited from earlier work.
The subject of the next series is Mecp2-null mice. The conditions noted are these: mouse, in vivo; cited from earlier work.
Another series has as its system adult patients. The conditions noted are these: human, in vivo; cited from earlier work.

Chain of human delta (DOP) receptor (P41143 whole entry): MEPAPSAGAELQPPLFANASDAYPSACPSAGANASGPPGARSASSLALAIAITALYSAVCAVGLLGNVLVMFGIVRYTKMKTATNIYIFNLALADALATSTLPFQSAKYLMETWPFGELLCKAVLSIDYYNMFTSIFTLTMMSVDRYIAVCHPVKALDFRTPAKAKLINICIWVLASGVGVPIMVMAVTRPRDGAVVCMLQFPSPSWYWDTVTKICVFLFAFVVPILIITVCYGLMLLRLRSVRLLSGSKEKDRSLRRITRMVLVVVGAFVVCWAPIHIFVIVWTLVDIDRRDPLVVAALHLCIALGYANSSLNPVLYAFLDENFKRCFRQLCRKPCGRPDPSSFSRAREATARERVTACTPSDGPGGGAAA
Chain of Sigma 2 (Q5BJF2 whole entry): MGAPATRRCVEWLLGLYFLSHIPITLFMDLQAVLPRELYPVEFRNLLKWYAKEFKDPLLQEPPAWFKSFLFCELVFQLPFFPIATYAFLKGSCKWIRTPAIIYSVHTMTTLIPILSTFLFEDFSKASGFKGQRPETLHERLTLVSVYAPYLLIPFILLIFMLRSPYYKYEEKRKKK

For the compound `NC1(c2ccccc2Cl)CCCCC1=O` (racemic) [NorKetamine, (R,S)-Norketamine], in series [1], the “Water Solubility of Free drug” value is 178 µg/mL. Further, the “Opiate delta1R (antagonist)” value in series [2] is recorded as “Not active”. Also, the “affinity for / effect on dopamine receptors” value in the series on dopamine receptors was “do not appear to have a direct effect on dopamine receptors”. Further, at Opiate μ, the “Opiate μ” value was “Not active” and the “binding to Opioid u receptors” value is on record as “does not bind Opioid u receptors”. Moreover, on D2L human dopamine GPCR, the “DRD2L Agonist” value is recorded as “Not active” and the “ability to bind dopamine 2 receptors” value is given as “does not appear to bind Dopamine 2 receptors”.

Consider `NCCc1c[nH]c2ccc(O)cc12` [5HT, 5-hydroxy tryptamine], for which the “Water Solubility of Free drug” value in series [1] was 2500 µg/mL.

As for `CC[C@H]1C[C@H]2C[C@H]3c4[nH]c5ccc(OC)cc5c4CCN(C2)[C@@H]13` [Ibogaine], the “drug craving and depressive symptoms” value in series [3] was “decreases drug craving and improves depressive symptoms”.

On to `CNC1(c2ccccc2Cl)CCCCC1=O` (stereo not drawn) [Ketamine, 2-(2-chlorophenyl)-2-(methylamino)-cyclohexanone], for which, in the series on dopamine receptors, the “affinity for / effect on dopamine receptors” value was “not shown any affinity for dopamine 2 receptors; also recorded: do not appear to have a direct effect on dopamine receptors”. Besides, the half-life result in series [4] is on record as “approximately 45 minutes”. In addition, in the series with patients, the “patients who develop an emergence phenomenon” value is given as “More than half the patients”. The “concentration at which sigma2 receptors are bound” value at Sigma 2 was “mM concentrations”. For the same compound, in the series with Mecp2-null mice, the “efficacy by start of treatment” value is recorded as “Treatment from day 30 was not effective; also recorded: treatment from day 15 showed some efficacy”, the improved survival is given as 50% and the survival after treatment is 50%.

`c1ccc(C2(N3CCCCC3)CCCCC2)cc1` [PCP, 1-(1-phencyclohexyl) piperidine]: the “adult patients presenting with the classic toxidrome of PCP intoxication” value in the series with adult patients is “Over 50%”.

As for `NCCc1c[nH]c2ccccc12` [Tryptamine], the “Water Solubility of Free drug” value in series [1] is 1340 µg/mL.
